In US11925632B2, “Isoquinoline derivatives for use in treating GLUT1 deficiency syndrome” (GLIAPHARM SA, priority 2019, dated 2024):
“Also recorded” adds a separate entry of the source.

Legend:
[1] = tested on: primary astrocytes; experiment: MTT mitochondrial activity assay; assay type: cell-based; conditions: Mus musculus, Astrocyte, 24 h treatment
Experimental: (§1) Primary cultures of cerebrocortical astrocytes were obtained from 1 to 2-day-old OF1 mouse pups (Charles River). Briefly, cortices were isolated and minced in small pieces under a dissecting microscope. The cells were incubated for 30 min at 37° C. in a solution containing 20 U/ml papain, 1 mM L-cysteine and 10 kU/ml DNase I. After dissociation, papain activity was stopped by the addition of fetal calf serum (FCS). Single-cell suspension was then obtained by mechanical dissociation, which consisted in cells trituration in a DMEM D7777 medium supplemented with 44 mm NaHCO3, 10 ml/L antibiotic/antimycotic solution and 10% FCS. The cells were seeded at an average density of ˜10′000 cells/cm^2 on poly-D-lysine coated 96- or 12-well culture plates, depending on their use, and grown in DMEM D7777 medium supplemented with 44 mm NaHCO3, 10 ml/L antibiotic/antimycotic solution and 10% FCS at 37° C. in a humidified atmosphere containing 5% CO2/95% air. Culture medium was renewed twice a week. Cells were stimulated and harvested between DIV14 and DIV17, when confluence and cell growth were optimal.
To monitor mitochondrial activity in astrocytes, which is linked to the metabolic process of glycolysis and production of lactate, astrocytes in 96-well plates were stimulated for 24 h (37° C. 5% CO2/95% air) with the compounds of the invention ranging from 0.2 to 200 μM.
After stimulation, 5 mg/ml thiazol blue tetrazolium bromide (MTT) in D5030 medium complemented with 5 mM D-glucose and 44 mM sodium bicarbonate (pH 7.2) was added to each well, and cells were incubated for 4 h at 37° C. (5% CO2). The medium was then removed and the amount of reduced MTT, i.e. formazan, solubilized in DMSO (50 μl/well) was determined using a spectrophotometer (absorbance of 570 nm).
The mitochondrial activity in primary astrocytes treated with Compounds (1) to (4) at concentrations ranging from 1 nM to 200 μM. After 24 h, mitochondrial activity was monitored in MTT colorimetric assay as described above (FIG. 3).

[2] = tested on: astrocytes; experiment: Extracellular medium acidification (SNARF5) assay in astrocytes; assay type: cell-based; conditions: Mus musculus, Astrocyte, 1.5 h; astrocytes in vitro, 90 min stimulation, 10 nM to 30 μM
Experimental: Secretion of lactate was measured indirectly through the acidification of extracellular medium using extracellular pH sensor SNARE-5F-(AND-6)-CAR (SNARF5) as described below.
Secretion of lactate was measured indirectly through the acidification of extracellular medium using extracellular pH sensor […] (SNARF5). After washing cells twice with stimulation medium (DMEM (D5030, Sigma), 1 mM […], and 5 mM Glucose, pH 7.4) at 37° C., cells were stimulated with compounds at a final concentration ranging from 10 nM to 30 μM in 50 μl per well of stimulation medium supplemented with 10 μM of SNARF5 (Life Technologies Corporation). Each compound was tested in two different plates for duplicates. After 90 min stimulation, fluorescence was read at exc. (excitation) 480 nm/emm. (emission) 580 nm and at exc 480 nm/emm. 630 nm. The ratio of fluorescence between 630 nm and 580 emission values, which is proportional to extracellular pH, was calculated. In each plate, 8 wells were used for negative controls (DMSO 0.1%) and 8 wells were used for positive controls (CCCP 2 μM in DMSO).
Table 3 below lists compounds that are active on the extracellular medium acidification (SNARF5) assay in astrocytes in vitro, which indicates their ability to produce lactate. ‘+’ indicates activity of compounds with EC50>5 μM; ‘++’ indicates activity of compounds with EC50<5 μM.
as §1

[3] = tested on: astrocytes transfected with GLUT1 siRNA; experiment: Lactate secretion, GLUT1 siRNA astrocytes (cellular model of GLUT1-DS); assay type: cell-based, mouse; conditions: vs vehicle
Experimental: Secretion of L-lactate was measured in the extracellular medium of 96-well plated astrocytes after 90 min stimulation (at 37° C., in 5% CO2/95% air conditions) with Vehicle (DMSO), the compounds of the invention (100 nM to 100 μM) or positive control. […] Stimulation medium was composed of D5030 medium complemented with 5 mM D-glucose and 44 mM sodium bicarbonate, pH 7.2. To quantify lactate concentrations in the extracellular medium, 200 μl of a 0.2M Glycine-semicarbazide buffer (pH 10) containing 3 mM NAD and 14 U/ml LDH was added to each well of a 96-well plate containing 30 μl aliquots of extracellular medium. Samples were incubated at 37° C. for 1 h. Fluorescence intensity (340 nm excitation/450 nm emission), which represents the amount of NADH produced, was measured, and lactate concentration values were determined relative to a standard curve of L-lactate concentrations.
(§2) Scramble and GLUT1 siRNA sequences were as following:
Cells were grown in transfection medium for 3 days at 37° C. in a humidified atmosphere containing 5% CO2/95% air. After 3 days, transfection medium was replaced with DMEM D5030 supplemented with 44 mM NaHCO3 and 5 mM D-Glucose (1 ml per well).
Lactate secretion after treatment with Veh or compound of the invention (1) was measured in astrocytes transfected with scramble siRNA or GLUT1 siRNA (FIG. 4B).

[4] = tested on: astrocytes transfected with scramble siRNA; experiment: 2-deoxyglucose (2DG) uptake, scramble siRNA astrocytes; assay type: cell-based, mouse; conditions: 30 min treatment, 1 or 10 μM, vs vehicle
Experimental: Astrocytes grown on 12-well plates and transfected with either scramble siRNA or GLUT1 siRNA were used. 1 day after having replaced transfection medium (DIV13), 2DG uptake was measured after treatment for 30 min with Vehicle (0.1% DMSO) or with the compound of the invention (1) (concentrations of 1 or 10 μM). During treatment, 1 mM 2DG was added to the medium for assessment of 2DG uptake. At the end of the stimulation, medium was removed and replaced with 150 μl NaOH 0.1M, and stored at −20° C. After thawing, cells were collected using cell scraper and heated for 40 min at 85° C. Then, 150 ul HCl 0.1M and TAE buffer 200 mM was added to each condition. 20 μl were added to a transparent 96-well plate and 2DG was quantified by addition of a reaction solution containing 50 mM TAE, 50 mM KCl, 0.02% BSA, 0.1 mM NADP, 0.2 U/ml diaphorase, 2 mM resazurin and 20 U/ml glucose-6-phosphate dehydrogenase. Concentration of 2DG in samples were calculated by comparison with standard curve of deoxy-glucose-6-phosphate ranging from 0 to 1 nmoles.
as §2
Cells were grown in transfection medium for 3 days at 37° C. in a humidified atmosphere containing 5% CO2/95% air. […]
2DG uptake after treatment with Veh or compound of the invention (1) was measured in astrocytes transfected with scramble siRNA or GLUT1 siRNA (FIG. 4A).

Structure (SMILES): COc1cc2ccnc(Nc3ccc(OC(F)(F)F)cc3)c2cc1OC [Example 1, 6,7-dimethoxy-N-(4-(trifluoromethoxy)phenyl)isoquinolin-1-amine]
- IC50 [1]: 34.4 µM
- EC50 [2]: > 5 µM
- Lactate secretion [3]: restored; also recorded: significantly enhances lactate secretion
- 2DG uptake [4]: significantly enhances 2DG uptake
